Test results as given in ChEMBL document CHEMBL4052736, “Synthesis, antioxidant, antifungal, molecular docking and ADMET studies of some thiazolyl hydrazones” (Bioorg Med Chem Lett, 2017).
Values after ≈ are worked out from the molar mass of the structure shown.

What was measured:
Format in all cases: functional
[1] = tested on: Aspergillus flavus; test: Antifungal activity against Aspergillus flavus after 24 hrs by well diffusion method
[2] = tested on: Candida albicans; test: Antifungal activity against Candida albicans after 24 hrs by well diffusion method
[3] = tested on: Aspergillus flavus; test: Antifungal activity against Aspergillus flavus assessed as zone of inhibition at 25 ug/ml measured after 24 hrs by well diffusion method; conditions: read-out: IZ
[4] = tested on: Aspergillus flavus; test: Antifungal activity against Aspergillus flavus assessed as zone of inhibition at 50 ug/ml measured after 24 hrs by well diffusion method; conditions: read-out: IZ
[5] = Antioxidant activity assessed as DPPH free radical scavenging activity at 20 ug/ml after 15 mins by spectrophotometric method
[6] = Antioxidant activity assessed as DPPH free radical scavenging activity at 40 ug/ml after 15 mins by spectrophotometric method
[7] = Antioxidant activity assessed as DPPH free radical scavenging activity at 60 ug/ml after 15 mins by spectrophotometric method
[8] = Antioxidant activity assessed as DPPH free radical scavenging activity at 80 ug/ml after 15 mins by spectrophotometric method
[9] = Antioxidant activity assessed as DPPH free radical scavenging activity at 100 ug/ml after 15 mins by spectrophotometric method
[10] = Antioxidant activity assessed as DPPH free radical scavenging activity measured after 15 mins by spectrophotometric method
[11] = Antioxidant activity assessed as H2O2 free radical scavenging activity at 20 ug/ml after 10 to 15 mins by spectrophotometric analysis
[12] = Antioxidant activity assessed as H2O2 free radical scavenging activity at 40 ug/ml after 10 to 15 mins by spectrophotometric analysis
[13] = Antioxidant activity assessed as H2O2 free radical scavenging activity at 60 ug/ml after 10 to 15 mins by spectrophotometric analysis
[14] = Antioxidant activity assessed as H2O2 free radical scavenging activity at 80 ug/ml after 10 to 15 mins by spectrophotometric analysis
[15] = Antioxidant activity assessed as H2O2 free radical scavenging activity at 100 ug/ml after 10 to 15 mins by spectrophotometric analysis
[16] = Antioxidant activity assessed as H2O2 free radical scavenging activity by spectrophotometric analysis
[17] = tested on: Aspergillus niger; test: Antifungal activity against Aspergillus niger assessed as zone of inhibition at 25 ug/ml measured after 24 hrs by well diffusion method; conditions: read-out: IZ
[18] = tested on: Aspergillus niger; test: Antifungal activity against Aspergillus niger assessed as zone of inhibition at 50 ug/ml measured after 24 hrs by well diffusion method; conditions: read-out: IZ
[19] = tested on: Aspergillus niger; test: Antifungal activity against Aspergillus niger assessed as zone of inhibition at 100 ug/ml measured after 24 hrs by well diffusion method; conditions: read-out: IZ
[20] = tested on: Candida albicans; test: Antifungal activity against Candida albicans assessed as zone of inhibition at 100 ug/ml measured after 24 hrs by well diffusion method; conditions: read-out: IZ
[21] = tested on: Candida albicans; test: Antifungal activity against Candida albicans assessed as zone of inhibition at 50 ug/ml measured after 24 hrs by well diffusion method; conditions: read-out: IZ
[22] = tested on: Candida albicans; test: Antifungal activity against Candida albicans assessed as zone of inhibition at 25 ug/ml measured after 24 hrs by well diffusion method; conditions: read-out: IZ
[23] = tested on: Aspergillus flavus; test: Antifungal activity against Aspergillus flavus assessed as zone of inhibition at 100 ug/ml measured after 24 hrs by well diffusion method; conditions: read-out: IZ
[24] = tested on: Aspergillus niger; test: Antifungal activity against Aspergillus niger after 24 hrs by well diffusion method

Row | SMILES | MIC [2] [µg/mL] | zone of inhibition at 25 µg/mL [3] [mm] | zone of inhibition at 50 µg/mL [4] [mm] | inhibition [5] [%] | inhibition [6] [%] | inhibition [7] [%] | inhibition [8] [%] | inhibition [9] [%] | IC50 [10] [µg/mL] | inhibition [11] [%] | inhibition [12] [%] | inhibition [13] [%] | inhibition [14] [%] | inhibition [15] [%] | IC50 [16] [µg/mL] | zone of inhibition at 25 µg/mL [17] [mm] | zone of inhibition at 50 µg/mL [18] [mm] | zone of inhibition at 100 µg/mL [19] [mm] | zone of inhibition at 100 µg/mL [20] [mm] | zone of inhibition at 50 µg/mL [21] [mm] | further results
1 | Clc1ccc(-c2csc(N/N=C/c3cccs3)n2)cc1 | 6.25 (≈ 19.5 µM) | 8 | 17 | 94.4 | 96 | 96.1 | 96.6 | 97 | 26.335 (≈ 82.3 µM) | 82.8 | 83.2 | 85.2 | 86 | 87.1 | 39.58 (≈ 124 µM) | 6 | 6 | 8 | 18 | 14 | MIC [1]: 12.5 µg/mL (≈ 39.1 µM); zone of inhibition at 25 µg/mL [22]: 11 mm; zone of inhibition at 100 µg/mL [23]: 20 mm
2 | COC(=O)c1cc(-c2csc(N/N=C/c3cccs3)n2)ccc1OCc1ccccc1 | 25 (≈ 55.6 µM) | 6 | 6 | 94.3 | 94.9 | 95.5 | 96 | 96.3 | 28.131 (≈ 62.6 µM) | 79.6 | 82.8 | 84.4 | 87.6 | 92.4 | 29.212 (≈ 65 µM) | 6 | 6 | 6 | 10 | 8 | zone of inhibition at 25 µg/mL [22]: 6 mm; zone of inhibition at 100 µg/mL [23]: 6 mm
3 | O=C(O)Cc1ccccc1Nc1c(Cl)cccc1Cl |  |  |  | 97.1 |  |  |  |  |  |  |  |  |  |  |  |  |  |  |  |  | 
4 | Fc1ccc(-c2csc(N/N=C/c3cccs3)n2)cc1 | 6.25 (≈ 20.6 µM) | 6 | 6 | 92.4 | 93.3 | 94.6 | 66.3 | 97 | 44.12 (≈ 145 µM) | 84.2 | 87.5 | 90.3 | 91.9 | 92.4 | 35.206 (≈ 116 µM) | 6 | 10 | 13 | 15 | 14 | MIC [24]: 25 µg/mL (≈ 82.4 µM); zone of inhibition at 25 µg/mL [22]: 12 mm; zone of inhibition at 100 µg/mL [23]: 6 mm
5 | Cc1ccc(-c2csc(N/N=C/c3cccs3)n2)cc1 | 6.25 (≈ 20.9 µM) | 6 | 6 | 90.9 | 97 | 97.6 | 97.8 | 98.1 | 29.837 (≈ 99.6 µM) | 79.6 | 82.8 | 84.4 | 88.4 | 91 | 35.933 (≈ 120 µM) | 6 | 6 | 6 | 15 | 14 | zone of inhibition at 25 µg/mL [22]: 13 mm; zone of inhibition at 100 µg/mL [23]: 6 mm
6 | O=C1O[C@H]([C@@H](O)CO)C(O)=C1O [ASCORBIC ACID] |  |  |  | 93.4 | 94.6 | 95.5 | 96 | 97 | 26.771 (≈ 152 µM) | 93.4 | 94.6 | 95.5 | 96 | 97 | 26.771 (≈ 152 µM) |  |  |  |  |  | 
